Data taken from patent US20230242586A1, “RAS INHIBITORS AND USES THEREOF” (The Regents of the University of California, priority 2020, published 2023).
≈ marks a conversion by molar mass, not a printed value. Entries after “also recorded” stand apart in the source; their conditions may differ.

How the values were obtained:
[1] = Solubility in aqueous buffer; format: physicochemical; conditions: for solubility (in words): KD2 Thr10 mutants, compared with parent peptide KD2
SW1990 cells = test: Ras signaling (p-Akt, p-Erk) in SW1990 cells, Western blot; format: cell-based; conditions: SW1990, 10 μM, 24 h
Protocol: SW1990 cells were obtained from ATCC and maintained in DMEM (Gibco)+10% heat-inactivated FBS (Axenia Biologix) supplemented with penicillin and streptomycin (Gibco). When indicated, cells were treated with drugs at 60-80% confluency at a final DMSO concentration of 1%. At the end of treatment period, cells were placed on ice and washed once with PBS. The cells were scraped with a spatula, pelleted by centrifugation (500×g, 5 min) and lysed in RIPA buffer supplemented with protease and phosphatase inhibitors (cOmplete and phosSTOP, Roche) on ice for 10 min. Lysates were clarified by high-speed centrifugation. Concentrations of lysates were determined with protein BCA assay (Thermo Fisher) and adjusted to 2 mg/mL with additional RIPA buffer. Samples were mixed with 5×SDS Loading Dye and heated at 95° C. for 5 min.
Gel Electrophoresis and Western Blot
Unless otherwise noted, SDS-PAGE was run with Novex 4-12% Bis-Tris gel (Invitrogen) in MES running buffer (Invitrogen) at 200V for 40 min following the manufacturer's instructions. Protein bands were transferred onto 0.45-μm nitrocellulose membranes (Bio-Rad) using a wet-tank transfer apparatus (Bio-Rad Criterion Blotter) in 1×TOWBIN buffer with 10% methanol at 75V for 45 min. […] The membrane was washed three times with TBST (5 min each wash) and imaged on a Li-COR Odyssey fluorescence imager.

[2] = biological target: T1, K-Ras(G12D)·GppNHp and Raf1-RBD (Homo sapiens, UniProt P01116, G12D); test: TR-FRET Ras-Raf interaction assay, K-Ras(G12D); format: biochemical; conditions: KD2 Thr10 analogs compared to KD2
T1 construct: pET-Duet plasmids encoding BirA biotin-protein ligase and His-Avi-TEV-tagged K-Ras proteins were constructed; made in house; host or cells: E. coli BL21(DE3)
T1 sequence (P01116 1-169 isoform P01116-2 G12D): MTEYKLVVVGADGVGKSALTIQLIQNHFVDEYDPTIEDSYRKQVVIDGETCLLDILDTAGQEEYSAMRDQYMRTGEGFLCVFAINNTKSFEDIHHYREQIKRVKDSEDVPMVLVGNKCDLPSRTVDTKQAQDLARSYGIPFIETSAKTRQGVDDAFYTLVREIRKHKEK

SMILES	Ras signaling (p-Akt or p-Erk levels) (SW1990 cells)	solubility (in words) [1]	potency relative to KD2, Ras·Raf interaction [2]	other results
CC[C@H](C)[C@@H]1NC(=O)[C@H](Cc2ccccc2)NC(=O)[C@H](CCCCN)NC(=O)[C@H](CCC(=O)O)NC(=O)[C@H]([C@@H](C)O)NC(=O)[C@H](C(C)C)NC(=O)[C@H]([C@@H](C)CC)NC(=O)[C@H]([C@@H](C)CC)NC(=O)[C@@H](Cc2ccc(O)cc2)NC(=O)CSC[C@@H](C(=O)NCC(N)=O)NC(=O)[C@H](Cc2c[nH]cn2)NC(=O)[C@H](Cc2c[nH]cn2)NC(=O)[C@H](C(C)C)NC(=O)[C@H](Cc2c[nH]c3ccccc23)NC1=O [KD1]	did not observe any change; also recorded: does not inhibit Ras signaling			solubility ([1]; aqueous buffer): ~50 µM (≈ 94.2 µg/mL)
CC(C)C[C@@H]1NC(=O)[C@H](CCC(=O)O)NC(=O)[C@H](CC(C)C)NC(=O)[C@@H]2CCCN2C(=O)[C@H](CCCNC(=N)N)NC(=O)[C@H](Cc2ccc(O)cc2)NC(=O)[C@@H]2CCCN2C(=O)[C@H](Cc2ccc(O)cc2)NC(=O)[C@H](CC(N)=O)NC(=O)[C@@H](Cc2ccc(O)cc2)NC(=O)CSC[C@@H](C(=O)NCC(N)=O)NC(=O)[C@H](Cc2ccc(O)cc2)NC(=O)[C@H](Cc2c[nH]c3ccccc23)NC(=O)CNC1=O [KD17]	did not observe any change; also recorded: does not inhibit Ras signaling			
NC[C@H](N)C(=O)O [Dap, 2,3-diaminoproprionic acid]		limited solubility		
CC1CCN(C[C@@H]2NC(=O)[C@H](CCCNC(=N)N)NC(=O)[C@H](Cc3ccccc3)NC(=O)[C@H](CC(N)=O)NC(=O)[C@H](CCCNC(=N)N)NC(=O)[C@H](Cc3ccccc3)NC(=O)[C@H](CC(N)=O)NC(=O)[C@H](C(C)C)NC(=O)[C@H](Cc3ccccc3)NC(=O)[C@@H](Cc3ccc(O)cc3)NC(=O)CSC[C@@H](C(=O)NCC(N)=O)NC(=O)[C@H](CCCNC(=N)N)NC(=O)[C@H](Cc3ccccc3)NC2=O)CC1 [Aza-X]			> 10 fold	
NCCCC[C@H](N)C(=O)O [Lys, lysine]		significantly lower	about 3 fold	
N[C@@H](Cc1c[nH]cn1)C(=O)O [His, histidine]		limited solubility		
